In patent US20260070885A1, “TRKA (G667C) AND FLT3 TARGET INHIBITOR AND COMBINATION OF SAME WITH CHIDAMIDE” (SHENZHEN CHIPSCREEN BIOSCIENCES CO., LTD., priority 2022, published 2026):
pIC50: −log10 of the molar value.

How the values were obtained:
SHP77 cells = test: Viability of SHP77 cells (MTS assay); format: cell-based; details: 72 h
Protocol: The SHP77 cell line was purchased from the American Type Culture Collection (ATCC) and cultured in an RPMI-1640 culture medium (Hyclone) containing 1% dual antibiotics (penicillin-streptomycin, Hyclone) and 10% fetal bovine serum (Gibco).
Compound A (N-[4-(6-Fluoro-1H-2-benzimidazolyl)benzyl]-(E)-3-(pyridin-3-yl)acrylamide) and chidamide were both from Shenzhen Chipscreen Biosciences Co., Ltd. The compound and chidamide were dissolved in dimethyl sulfoxide (DMSO, Shanghai Sangon, DN3039A) to prepare 20 mM working mother liquors, and the mother liquors were stored in a freezer at −20° C. before use. When in use, the mother liquors were diluted to prepare working solutions with corresponding final concentrations according to the needs of each experiment.
MTS solution: 42 mg of MTS Reagent Powder was placed in a light shielding container, and 21 mL of PBS was added. The mixture was gently stirred on a magnetic stirrer for 15 min until MTS was completely dissolved. The pH of the solution was measured. If the pH was higher than 6.5, the pH of the solution was adjusted to 6.5 with 1 M HCl. The solution was sterilized by filtration through a 0.2 μm filter and stored at −20° C. in a dark place.
PMS solution: […] of PMS was added to 21.7 mL of PBS to prepare a 150 μM stock solution, and the stock solution was sterilized by filtration, aliquoted, and stored at −20° C. in a dark place.
2.2. […]
2.4. […] After the plate was incubated for about 1 h, the absorbance at 490 nm in each well was measured using a microplate reader.
The reading of the BLANK well was OD490-BLANK (background value). The background value was subtracted from the readings of the wells to obtain the absorbance values of the administration wells, OD490-T, and the absorbance values of the control wells in which the drug concentration was 0, OD490-T0. With the cell viability of the control wells defined as 100%, the relative cell survival rate in each administration well was calculated using the formula: relative cell survival rate (%)=(OD490-T/OD490-T0)×100%.

TRKA (G667C) = TRKA (G667C) (Homo sapiens (Human), UniProt P04629, G667C); test: HTRF kinase inhibition assay, TRKA (G667C); format: biochemical; details: ATP 0.5 μM
Sequence of TRKA (G667C) (P04629 33-796 G667C): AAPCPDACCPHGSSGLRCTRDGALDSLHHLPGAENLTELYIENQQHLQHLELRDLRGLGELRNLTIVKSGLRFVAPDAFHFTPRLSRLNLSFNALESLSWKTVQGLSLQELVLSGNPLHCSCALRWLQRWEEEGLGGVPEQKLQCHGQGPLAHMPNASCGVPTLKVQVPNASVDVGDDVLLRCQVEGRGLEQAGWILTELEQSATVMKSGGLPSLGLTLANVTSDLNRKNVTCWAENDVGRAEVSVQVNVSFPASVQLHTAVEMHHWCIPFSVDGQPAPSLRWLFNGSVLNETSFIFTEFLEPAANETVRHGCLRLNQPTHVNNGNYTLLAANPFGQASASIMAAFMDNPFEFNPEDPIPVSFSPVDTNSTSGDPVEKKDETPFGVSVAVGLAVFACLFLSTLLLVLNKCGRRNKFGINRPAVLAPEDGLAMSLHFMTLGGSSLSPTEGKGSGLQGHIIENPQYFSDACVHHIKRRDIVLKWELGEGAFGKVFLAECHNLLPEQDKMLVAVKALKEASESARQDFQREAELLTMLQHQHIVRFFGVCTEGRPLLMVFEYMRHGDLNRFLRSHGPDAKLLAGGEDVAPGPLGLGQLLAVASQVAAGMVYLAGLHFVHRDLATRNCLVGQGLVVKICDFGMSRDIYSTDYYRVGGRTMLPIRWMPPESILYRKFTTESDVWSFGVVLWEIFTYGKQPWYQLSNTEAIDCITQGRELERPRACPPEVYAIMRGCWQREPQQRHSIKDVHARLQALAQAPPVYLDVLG
Protocol: (§1) The inhibition of the kinases TRKA (G667C), FLT3, and FLT3 (D835Y) by the compound N-[4-(6-fluoro-1H-2-benzimidazolyl)benzyl]-(E)-3-(pyridin-3-yl)acrylamide of the present disclosure (hereinafter referred to as compound A) was assessed using a homogeneous time-resolved fluorescence (HTRF) method based on biochemical levels.
(§2) HTRF is a technology used for detecting a test substance in a pure liquid phase system. Based on two major technologies: fluorescence resonance energy transfer (FRET) and time-resolved fluorescence (TRF), the generated fluorescence intensity was measured using a microplate reader, and the ratio 665 nm/620 nm reflected the extent to which compound A inhibited the activity of the kinases TRKA (G667C), FLT3, and FLT3 (D835Y).
(§3) a) Preparation of compound A or chidamide: The starting stock solution concentration of compound A or chidamide was 20 mM. The stock solution was serially diluted with the solvent 100% DMSO to 0.2 mM, which was 200 times the assay starting concentration.
(§4) b) A kinase reaction buffer Assay Buffer was prepared using the following formula: […]
(§5) 4) After the 384-well plate was centrifuged at 1000 rpm for 30 s and shaken for thorough mixing, the fluorescence intensities at 665 nm and 620 nm were measured using EnVision, and the TR-FRET ratio (665 nm/620 nm) was calculated. […]

FLT3 (D835Y) = FLT3 (D835Y) (Homo sapiens (Human), UniProt P36888, D835Y); test: HTRF kinase inhibition assay, FLT3 (D835Y); format: biochemical; details: ATP 0.5 μM
Protocol: as §1, §2, §3, §4, §5

FLT3 = FLT3 (Homo sapiens (Human), UniProt P36888); test: HTRF kinase inhibition assay, FLT3; format: biochemical; details: ATP 2 μM
Protocol: as §1, §2, §3, §4, §5

| pIC50 (TRKA (G667C)) | pIC50 (FLT3 (D835Y)) | pIC50 (FLT3) | SMILES | relative cell survival rate (SHP77 cells; chidamide alone 0.5 μM) | relative cell survival rate (SHP77 cells; compound A alone 0.625 μM) | relative cell survival rate (SHP77 cells; compound A alone 1.25 μM) |
| --- | --- | --- | --- | --- | --- | --- |
| < 6.00 | < 6.00 | < 6.00 | Nc1cc(F)ccc1NC(=O)c1ccc(CNC(=O)/C=C/c2cccnc2)cc1 [Chidamide, N-(2-amino-4-fluorophenyl)-4-[N-[(E)-3-(pyridin-3-yl)acryloyl]aminomethyl]benzamide] | 95.45±0.81% |  |  |
| 7.39 | 6.98 | 6.85 | O=C(/C=C/c1cccnc1)NCc1ccc(-c2nc3ccc(F)cc3[nH]2)cc1 [Compound A, N-[4-(6-fluoro-1H-2-benzimidazolyl)benzyl]-(E)-3-(pyridin-3-yl)acrylamide] |  | 77.43±1.18% | 44.09±6.59% |
